Experimental data taken from patent US6303785A, “Compounds having activity as inhibitors of cytochrome P450RAI” (Allergan Sales, Inc., priority 2000, dated 2001).

Experiments:
[1] = system: human skin; details: known; cited from earlier work
[2] = system: skin of hairless mice; test: Topical Skin Irritation Test (cutaneous toxicity / Blackjack score); assay type: in vivo, hairless mouse (Cr1:SKH1-hrBR); details: topical once daily days 1-5, mean±SD, range 0-21
From the text: Mice were housed individually throughout the dosing period.
Doses are disclosed as nmol/25 g.
The grading scale used is as follows:
Values can range from 0-9.
Values can range from 0-8.

[3] = system: RARγ; test: chimeric receptor transactivation assay, RARγ; assay type: cell-based; details: read-out: RAR EC50 γ
From the text: (§1) Assays described below measure the ability of a compound to bind to, and/or activate various retinoid receptor subtypes. When in these assays a compound binds to a given receptor subtype and activates the transcription of a reporter gene through that subtype, then the compound is considered an agonist of that receptor subtype. […] In the below described assays the ability of the compounds to bind to RARα, […], RARγ, […] and RXRγ receptors, and the ability or inability of the compounds to activate transcription of a reporter gene through these receptor subtypes can be tested.
(§2) The results obtained in this assay are expressed in EC50 numbers, as they are also in the chimeric receptor transactivation assay. The results of ligand binding assay are expressed in Kd numbers.

[4] = system: RARβ; test: chimeric receptor transactivation assay, RARβ; assay type: cell-based; details: read-out: RAR EC50 β
From the text: as §1, §2

[5] = biological target: T1, RARβ (Homo sapiens, UniProt P10826); test: ligand binding assay, RARβ; details: read-out: RAR Kd β
T1 sequence (P10826 1-455): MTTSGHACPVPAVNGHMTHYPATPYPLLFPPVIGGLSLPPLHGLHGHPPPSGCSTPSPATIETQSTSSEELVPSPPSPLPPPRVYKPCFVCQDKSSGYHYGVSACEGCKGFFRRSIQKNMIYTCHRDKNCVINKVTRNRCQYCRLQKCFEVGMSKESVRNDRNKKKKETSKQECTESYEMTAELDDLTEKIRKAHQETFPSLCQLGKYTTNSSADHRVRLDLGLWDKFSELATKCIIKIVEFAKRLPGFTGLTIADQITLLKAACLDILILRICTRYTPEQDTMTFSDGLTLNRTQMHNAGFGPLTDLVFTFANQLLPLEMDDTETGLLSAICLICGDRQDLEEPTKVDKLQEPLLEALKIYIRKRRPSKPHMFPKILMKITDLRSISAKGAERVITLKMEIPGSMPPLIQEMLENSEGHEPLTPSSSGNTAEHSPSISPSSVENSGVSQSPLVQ
From the text: as §1, §2

[6] = system: psoriasis; details: prior art; cited from earlier work

Compound | Cutaneous Toxicity Score (Blackjack Score) ([2]; 100 nmole (per 25 g)) | Cutaneous Toxicity Score (Blackjack Score) ([2]; 1000 nmole (per 25 g)) | Cutaneous Toxicity Score (Blackjack Score) ([2]; 300 nmole (per 25 g)) | other results
CC1=C(/C=C/C(C)=C/C=C/C(C)=C\C(=O)O)C(C)(C)CCC1 [13-cis RA] |  |  |  | skin irritation in humans (in words) [1]: substantial skin irritation
CC1=C(/C=C/C(C)=C/C=C/C(C)=C/C(=O)O)C(C)(C)CCC1 [ATRA, all-trans-retinoic acid] |  |  |  | skin irritation in humans (in words) [1]: substantial skin irritation
CC1(C)CCC(=O)c2ccc(C#Cc3ccc(CC(=O)O)cc3)cc21 [Compound 5, 4-[(8,8-Dimethyl1-5-oxo-5,6,7,8-tetrahydro-naphthalene-2-yl-ethynyl)-phenyl]-acetic acid] | 0 | 6 ± 3 |  | 
CN(C1CC1)C1CCC(C)(C)c2cc(C#Cc3ccc(CC(=O)O)cc3)ccc21 (centres unmarked) [Compound 8, 4-[(5-(Cyclopropyl-methyl-amino)-8,8-dimethyl-5,6,7,8-tetrahydro-naphthalene-2-yl-ethynyl)-phenyl]-acetic acid] | 5 ± 2 | 12 ± 1 | 8 ± 3 | 
CC1(C)CCC(=O)c2ccc(C#Cc3ccc(C(=O)O)c(F)c3)cc21 [Compound 10, 2-Fluoro-4(8,8dimethyl-5-oxo-5,6,7,8-tetrahydro-naththalen-2yl-ethynyl)benzoic acid] |  |  |  | EC50 [3]: 6 nM; EC50 [4]: 0.3 nM
CC1(C)CCC(=O)c2ccc(C#Cc3ccc(CC(=O)O)c(F)c3)cc21 [Compound 15, [2-Fluoro-4-(8,8-dimethyl-5-oxo-5,6,7,8-tetrahydro-naphthalene-2-yl-ethynl)phenyl]-acetic acid] | 1 ± 1 | 5 ± 2 |  | 
CN(C1CC1)C1CCC(C)(C)c2cc(C#Cc3ccc(CC(=O)O)c(F)c3)ccc21 (centres unmarked) [Compound 18, [4-(5-(Cyclopropyl-methyl-amino)-8,8-dimethyl-5,6,7,8-tetrahydro-naphthalene-2-yl-ethynyl)-2-fluoro-phenyl]-acetic acid] | 0 ± 0 | 10 ± 2 | 5 ± 2 | 
CC1(C)CN(C2CC2)Cc2ccc(C#Cc3ccc(CC(=O)O)c(F)c3)cc21 [Compound 22, [4-(2-Cyclopropyl-4,4-dimethyl-1 2,3,4-tetrahydro-isoquinolin-6-yl-ethynyl)-2-fluoro-phenyl]-acetic acid] | 0 ± 0 | 1 ± 1 | 0 ± 0 | 
CC1(C)CC(C)(C)c2cc(C#Cc3ccc(CC(=O)O)cc3)cc(C3CC3)c2O1 [Compound 36, [4-(8-Cyclopropyl-2,2,4,4-tetramethyl-chroman-6-yl-ethynyl)phenyl]acetic acid] | 1 ± 1 | 11 ± 0 |  | 
CC1(C)CC(C)(C)c2cc(C#Cc3ccc(CC(=O)O)c(F)c3)cc(C3CC3)c2O1 [Compound 38, [4(8-Cyclopropyl-2,2,4,4tetramethyl-chroman-6-yl-ethynyl)-2-fluoro-phenyl]acetic acid] | 1 ± 1 | 10 ± 1 |  | 
CC1(C)CC2(CC2)Oc2c(C3CC3)cc(C#Cc3ccc(CC(=O)O)cc3)cc21 [Compound 48, Benzeneacetic acid, 4-[(8-cyclopropyl-3,4-dihydro-4,4-dimethylspiro[2H 1-benzopyran-2.1'-cyclopropane]-6-yl)ethanyl]-] | 1 ± 1 | 7 ± 2 | 3 ± 1 | 
CC1(C)CC2(CC2)Oc2c(C3CC3)cc(C#Cc3ccc(CC(=O)O)c(F)c3)cc21 [Compound 50, 4-[(8-Cyclopropyl-3,4-dihydro-4,4-dimethylspiro[2H-1-benzopyran-2,1'-cyclopropane]-6-yl)ethynyl]-2-fluoro-benzeneacetic acid] | 1 ± 0 | 8 ± 2 | 3 ± 2 | 
CC1(C)CC2(CC2)Oc2c(C3CC3)cc(C(=O)Oc3ccc(CC(=O)O)cc3)cc21 [Compound 58, Spiro[2H-1-benzopyran-2,1'-cyclopropane]-6-carboxylic acid, 8-cyclopropyl-3,4-dihydro-4,4-dimethyl-, 4-(carboxymethyl)phenyl ester] | 0 ± 0 | 0 ± 0 | 0 ± 0 | 
CCc1cc(C#Cc2ccc(C(=O)O)cc2)ccc1C1(OCc2ccccc2)CC1 [Compound 93, 4-[4-(1-Benzyloxycyclopropyl)-3-ethyl-phenylethynyl]-benzoic acid] |  |  |  | EC50 [3]: 10 nM; EC50 [4]: 20 nM
O=C(O)c1ccc(C#Cc2ccc(C3(N(Cc4ccccc4)Cc4ccccc4)CC3)cc2)cc1 [Compound 114] |  |  |  | Kd [5]: > 10 nM
CC1(C)CCC(n2ccnc2)c2ccc(C#Cc3ccc(CC(=O)O)cc3)cc21 (centres unmarked) [Compound 137, [4-(5-Imidazol-1-yl-8,8-dimethyl-5,6,7,8-tetrahydro-naphthalen-2-yl-ethynyl)-phenyl]-acetic acid] | 1 ± 1 | 5 ± 2 | 1 ± 1 | 
CCOC(=O)/C=C(C)/C=C/C=C(C)/C=C/c1c(C)cc(OC)c(C)c1C [etretinate] |  |  |  | skin irritation in humans (in words) [1]: substantial skin irritation
Clc1cccc(C(c2ccc3[nH]cnc3c2)n2ccnc2)c1 (centres unmarked) [liarozole] |  |  |  | retinoid-like effect of treatment (in words) [6]: amelioration of psoriasis
